The source made the active and inactive calls. The rule behind the calls is not given here.
Experiments:
[1] = target: T1, Free fatty acid receptor 1 (Homo sapiens, UniProt O14842); assay: Agonist activity at human FFA1 receptor expressed in CHO cell membranes after 4 hrs by aequorin bioluminescence assay; type: cell-based
[2] = target: T1, Free fatty acid receptor 1; assay: Agonist activity at human FFA1 receptor expressed in CHO cell membranes after 4 hrs by aequorin bioluminescence assay relative to AM-1638; type: cell-based
[3] = tested on: Pancreatic islet; assay: Potentiation of glucose-stimulated insulin secretion in human pancreatic islets at 0.01 uM to 10 uM; type: functional
[4] = target: Free fatty acid receptor 1 (Rattus norvegicus) (UniProt Q8K3T4); assay: Agonist activity at FFA1 receptor in Sprague-Dawley rat fetal intestinal cells assessed as stimulation of GIP secretion after 1 hr by ELISA relative to AM-1638
[5] = tested on: Mus musculus; assay: Antidiabetic activity in high-fat diet fed streptozotocin-induced C57BL/6J mouse assessed as increase in insulin secretion at 30 mg/kg, po by oral glucose tolerance test; type: functional, organism-based; parameters: dose 30 mg/kg
[6] = Clearance in cynomolgus monkey at 0.5 mg/kg, iv; type: ADME, organism-based, Macaca fascicularis; parameters: dose 0.5 mg/kg, route intravenous; conditions: in vivo
[7] = target: T1, Free fatty acid receptor 1; assay: Positive cooperativite binding to human FFA1 receptor expressed in CHO cell membranes assessed as enhancement of specific binding of [3H]AMG 837 by reciprocal competition assay
[8] = target: D(1A) dopamine receptor (Homo sapiens) (UniProt P21728); assay: Inhibition of human dopamine D1 receptor at 10 uM relative to control
[9] = Oral bioavailability in cynomolgus monkey at 2 mg/kg; type: ADME, organism-based, Macaca fascicularis; conditions: in vivo
[10] = target: Sodium-dependent noradrenaline transporter (Homo sapiens) (UniProt P23975); assay: Inhibition of human norepinephrine transporter at 10 uM relative to control
[11] = target: Free fatty acid receptor 1 (Rattus norvegicus) (UniProt Q8K3T4); assay: Agonist activity at FFA1 receptor in Sprague-Dawley rat fetal intestinal cells assessed as stimulation of GIP secretion after 1 hr by ELISA
[12] = Half life in Sprague-Dawley rat at 0.5 mg/kg, iv; type: ADME, organism-based; parameters: dose 0.5 mg/kg, route intravenous; conditions: in vivo
[13] = Clearance in Sprague-Dawley rat at 0.5 mg/kg, iv; type: ADME, organism-based; parameters: dose 0.5 mg/kg, route intravenous; conditions: in vivo
[14] = Volume of distribution at steady state in Sprague-Dawley rat at 0.5 mg/kg, iv; type: ADME, organism-based; parameters: dose 0.5 mg/kg, route intravenous; conditions: in vivo, read-out: Vdss
[15] = tested on: Pancreatic islet; assay: Potentiation of glucose-stimulated insulin secretion in mouse pancreatic islets at 0.01 uM to 10 uM; type: functional
[16] = target: T2, Gastrin/cholecystokinin type B receptor (Homo sapiens) (UniProt P32239); assay: Inhibition of human CCK2 receptor at 10 uM relative to control
T2 sequence (whole entry): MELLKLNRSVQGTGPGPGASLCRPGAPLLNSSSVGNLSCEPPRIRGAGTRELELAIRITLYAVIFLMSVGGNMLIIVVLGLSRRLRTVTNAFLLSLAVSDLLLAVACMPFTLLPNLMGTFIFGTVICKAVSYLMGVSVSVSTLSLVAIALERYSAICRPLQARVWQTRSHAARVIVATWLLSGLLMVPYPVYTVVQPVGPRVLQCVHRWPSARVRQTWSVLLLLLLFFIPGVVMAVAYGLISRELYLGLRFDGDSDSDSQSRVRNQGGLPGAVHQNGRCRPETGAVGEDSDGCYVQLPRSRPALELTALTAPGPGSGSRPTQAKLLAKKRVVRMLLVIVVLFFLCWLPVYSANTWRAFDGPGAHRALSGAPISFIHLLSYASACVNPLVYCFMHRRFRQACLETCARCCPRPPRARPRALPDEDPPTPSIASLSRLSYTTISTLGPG

[17] = target: Free fatty acid receptor 1 (Rattus norvegicus) (UniProt Q8K3T4); assay: Agonist activity at FFA1 receptor in Sprague-Dawley rat fetal intestinal cells assessed as stimulation of GLP1 secretion after 1 hr by ELISA relative to AM-1638
[18] = Oral bioavailability in Sprague-Dawley rat at 2 mg/kg; type: ADME, organism-based; conditions: in vivo
[19] = target: Histamine H4 receptor (Homo sapiens) (UniProt Q9H3N8); assay: Inhibition of human histamine H4 receptor at 10 uM relative to control
[20] = target: T3, Adenosine receptor A1 (Homo sapiens) (UniProt P30542); assay: Inhibition of human adenosine A1 receptor at 10 uM relative to control
T3 sequence (whole entry): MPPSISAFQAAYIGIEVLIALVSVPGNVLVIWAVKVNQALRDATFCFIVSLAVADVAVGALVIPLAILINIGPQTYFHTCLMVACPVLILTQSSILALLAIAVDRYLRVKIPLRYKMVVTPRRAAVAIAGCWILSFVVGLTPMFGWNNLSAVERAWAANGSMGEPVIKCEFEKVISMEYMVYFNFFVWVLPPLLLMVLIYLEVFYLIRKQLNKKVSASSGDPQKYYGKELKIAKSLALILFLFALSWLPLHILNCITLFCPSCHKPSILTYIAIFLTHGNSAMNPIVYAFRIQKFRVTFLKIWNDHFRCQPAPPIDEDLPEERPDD

[21] = Volume of distribution at steady state in cynomolgus monkey at 0.5 mg/kg, iv; type: ADME, organism-based, Macaca fascicularis; parameters: dose 0.5 mg/kg, route intravenous; conditions: in vivo, read-out: Vdss
[22] = target: Kappa-type opioid receptor (Rattus norvegicus) (UniProt P34975); assay: Inhibition of rat kappa opioid receptor at 10 uM relative to control
[23] = target: T4, Thyrotropin-releasing hormone receptor (Homo sapiens) (UniProt P34981); assay: Inhibition of human TRH1 receptor at 10 uM relative to control
T4 sequence (whole entry): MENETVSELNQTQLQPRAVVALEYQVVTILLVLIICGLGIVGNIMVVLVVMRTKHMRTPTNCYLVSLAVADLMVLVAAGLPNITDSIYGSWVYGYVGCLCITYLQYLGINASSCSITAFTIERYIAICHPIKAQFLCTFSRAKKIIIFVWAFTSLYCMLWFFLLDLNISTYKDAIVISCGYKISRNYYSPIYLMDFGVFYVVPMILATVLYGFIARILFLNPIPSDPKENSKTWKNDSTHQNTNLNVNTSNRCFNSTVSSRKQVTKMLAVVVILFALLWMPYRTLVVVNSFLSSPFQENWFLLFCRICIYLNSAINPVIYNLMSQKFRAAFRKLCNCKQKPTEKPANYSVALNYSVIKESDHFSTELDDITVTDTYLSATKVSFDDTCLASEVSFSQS

[24] = tested on: Mus musculus; assay: Antidiabetic activity in high-fat diet fed streptozotocin-induced C57BL/6J mouse assessed as improvement in glucose AUC at 30 mg/kg, po by oral glucose tolerance test relative to control; type: functional
[25] = target: Free fatty acid receptor 1 (Rattus norvegicus) (UniProt Q8K3T4); assay: Agonist activity at FFA1 receptor in Sprague-Dawley rat fetal intestinal cells assessed as stimulation of GLP1 secretion after 1 hr by ELISA
[26] = Half life in cynomolgus monkey at 0.5 mg/kg, iv; type: ADME, organism-based, Macaca fascicularis; parameters: dose 0.5 mg/kg, route intravenous; conditions: in vivo
[27] = tested on: Mus musculus; assay: Antidiabetic activity in high-fat diet fed streptozotocin-induced C57BL/6J mouse at 60 mg/kg, po by oral glucose tolerance test; type: functional, organism-based; parameters: dose 60 mg/kg

Sequence of Kappa-type opioid receptor (Rattus norvegicus) (P34975 whole entry): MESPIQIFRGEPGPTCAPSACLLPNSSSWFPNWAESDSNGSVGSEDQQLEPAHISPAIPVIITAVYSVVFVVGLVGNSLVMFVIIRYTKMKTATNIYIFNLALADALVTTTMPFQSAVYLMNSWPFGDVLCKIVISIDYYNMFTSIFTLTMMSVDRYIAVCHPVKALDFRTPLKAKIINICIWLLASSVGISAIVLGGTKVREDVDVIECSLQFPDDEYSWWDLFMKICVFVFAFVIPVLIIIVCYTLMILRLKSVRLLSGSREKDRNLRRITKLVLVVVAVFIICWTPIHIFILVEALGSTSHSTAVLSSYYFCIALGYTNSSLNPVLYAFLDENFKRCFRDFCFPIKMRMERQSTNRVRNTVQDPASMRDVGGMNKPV
Sequence of Free fatty acid receptor 1 (Rattus norvegicus) (Q8K3T4 whole entry): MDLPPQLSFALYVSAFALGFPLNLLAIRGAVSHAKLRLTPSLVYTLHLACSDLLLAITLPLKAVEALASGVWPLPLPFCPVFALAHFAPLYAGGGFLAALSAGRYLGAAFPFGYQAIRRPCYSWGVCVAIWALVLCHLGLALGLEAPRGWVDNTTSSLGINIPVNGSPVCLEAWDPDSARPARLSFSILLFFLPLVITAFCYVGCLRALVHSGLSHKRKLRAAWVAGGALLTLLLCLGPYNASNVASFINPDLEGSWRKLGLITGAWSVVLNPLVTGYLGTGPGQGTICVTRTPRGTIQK
Sequence of Histamine H4 receptor (Homo sapiens) (Q9H3N8 whole entry): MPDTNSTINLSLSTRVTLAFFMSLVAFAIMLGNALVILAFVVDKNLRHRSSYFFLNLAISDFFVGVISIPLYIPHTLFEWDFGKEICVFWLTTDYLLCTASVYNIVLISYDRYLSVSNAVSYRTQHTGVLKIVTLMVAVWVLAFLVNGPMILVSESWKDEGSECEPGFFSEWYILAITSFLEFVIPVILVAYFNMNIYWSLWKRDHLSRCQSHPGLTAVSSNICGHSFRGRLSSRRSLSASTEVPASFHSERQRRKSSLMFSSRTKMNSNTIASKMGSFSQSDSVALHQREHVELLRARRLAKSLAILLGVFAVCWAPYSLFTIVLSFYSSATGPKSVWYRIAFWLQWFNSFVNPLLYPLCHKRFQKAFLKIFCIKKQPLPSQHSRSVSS
T1 sequence (O14842 whole entry): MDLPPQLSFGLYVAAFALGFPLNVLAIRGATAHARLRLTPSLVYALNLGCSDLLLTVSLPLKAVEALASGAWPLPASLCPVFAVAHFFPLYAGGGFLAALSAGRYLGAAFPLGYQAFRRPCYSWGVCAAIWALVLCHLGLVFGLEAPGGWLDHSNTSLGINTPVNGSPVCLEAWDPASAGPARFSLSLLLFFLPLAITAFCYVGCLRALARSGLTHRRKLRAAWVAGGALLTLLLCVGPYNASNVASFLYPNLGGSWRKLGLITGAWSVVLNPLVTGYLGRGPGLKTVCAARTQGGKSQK
Sequence of Sodium-dependent noradrenaline transporter (Homo sapiens) (P23975 whole entry): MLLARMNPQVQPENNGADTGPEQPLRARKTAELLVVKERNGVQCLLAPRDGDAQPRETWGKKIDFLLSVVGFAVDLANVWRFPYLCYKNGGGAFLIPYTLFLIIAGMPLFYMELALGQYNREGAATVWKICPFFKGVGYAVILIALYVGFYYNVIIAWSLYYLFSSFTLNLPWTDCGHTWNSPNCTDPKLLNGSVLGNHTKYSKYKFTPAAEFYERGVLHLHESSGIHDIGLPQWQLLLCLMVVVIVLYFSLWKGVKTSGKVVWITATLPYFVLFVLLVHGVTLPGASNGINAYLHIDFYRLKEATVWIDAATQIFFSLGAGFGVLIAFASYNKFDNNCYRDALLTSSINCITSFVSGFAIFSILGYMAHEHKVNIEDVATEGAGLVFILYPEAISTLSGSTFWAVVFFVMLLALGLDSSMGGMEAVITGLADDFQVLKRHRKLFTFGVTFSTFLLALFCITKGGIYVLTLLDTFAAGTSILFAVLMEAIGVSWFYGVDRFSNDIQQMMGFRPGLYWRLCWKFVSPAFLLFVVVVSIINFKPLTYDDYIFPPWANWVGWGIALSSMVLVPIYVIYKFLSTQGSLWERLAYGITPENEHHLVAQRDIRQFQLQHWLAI
Sequence of D(1A) dopamine receptor (Homo sapiens) (P21728 whole entry): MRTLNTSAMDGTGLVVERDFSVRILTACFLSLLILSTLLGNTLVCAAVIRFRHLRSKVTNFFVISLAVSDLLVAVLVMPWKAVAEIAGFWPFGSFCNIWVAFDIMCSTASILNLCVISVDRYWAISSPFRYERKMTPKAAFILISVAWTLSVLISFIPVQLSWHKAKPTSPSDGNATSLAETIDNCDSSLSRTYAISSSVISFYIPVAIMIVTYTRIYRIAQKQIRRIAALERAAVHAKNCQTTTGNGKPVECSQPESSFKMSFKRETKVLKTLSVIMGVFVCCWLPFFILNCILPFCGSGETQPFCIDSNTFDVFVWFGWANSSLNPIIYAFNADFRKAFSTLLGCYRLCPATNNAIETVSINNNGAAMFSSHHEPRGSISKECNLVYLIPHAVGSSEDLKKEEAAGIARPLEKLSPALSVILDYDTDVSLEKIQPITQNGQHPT

`COc1ccc(F)c(-c2ccc(COc3ccc4c(c3)[C@]3(CCC4)C[C@H]3C(=O)O)cc2[C@@H]2CCCC2(C)C)c1` gave an EC50 [1] of 0.092 µM and an Emax [2] of 101%.

Compound `COc1ccc(F)c(-c2ccc(COc3ccc4c(c3)[C@]3(CC4)C[C@@H]3C(=O)O)cc2C2=CCCC2(C)C)c1` has an EC50 [1] greater than 30 µM and an Emax [2] of 5%.

With `COc1ccc(F)c(-c2ccc(COc3ccc4c(c3)[C@]3(CC4)C[C@H]3C(=O)O)cc2[C@@H]2CCCC2(C)C)c1` the Activity [3] was “Active”, the fold change (FC) [4] was 2 and the Activity [5] was “Active”. For the same compound, the clearance [6] was 14 mL/min/kg, the Activity [7] was “Active” and the EC50 [1] was 0.081 µM. For the same compound, the inhibition [8] was less than 70%, the bioavailability [9] was 69% and the inhibition [10] was less than 70%. The Activity [11] was “Active”, the half-life [12] was 4.2 h and the clearance [13] was 4.17 mL/min/kg. The Vd [14] was 0.7 L/kg, the Activity [15] was “Active” and the inhibition [16] was less than 70%. For the same compound, the Emax [2] was 101%, the fold change (FC) [17] was 2 and the bioavailability [18] was 28%. It also gave an inhibition [19] of less than 70%, an inhibition [20] of less than 70% and a Vd [21] of 1.4 L/kg. It also gave an inhibition [22] of less than 70%, an inhibition [23] of less than 70% and an Activity [24] of 48%. The Activity [25] was “Active” and the half-life [26] was 2.2 h.

With `COc1ccc(F)c(-c2ccc(COc3ccc4c(c3)[C@H]3[C@@H](C4)[C@@H]3C(=O)O)cc2C2=CCCC2(C)C)c1` the EC50 [1] was 1.42 µM and the Emax [2] was 99%.

In the case of `COc1ccc(F)c(-c2ccc(COc3ccc4c(c3)[C@]3(CC4)C[C@H]3C(=O)O)cc2[C@H]2CCCC2(C)C)c1`, the EC50 [1] is reported as 0.212 µM and the Emax [2] is reported as 104%.

With `COc1ccc(F)c(-c2ccc(COc3ccc4c(c3)[C@]3(CC4)C[C@H]3C(=O)O)cc2C2=CCCC2(C)C)c1` the EC50 [1] was 0.18 µM and the Emax [2] was 100%.

`COc1ccc(F)c(-c2ccc(COc3ccc4c(c3)[C@@]3(CC4)C[C@@H]3C(=O)O)cc2C2=CCCC2(C)C)c1` gave an EC50 [1] greater than 30 µM and an Emax [2] of 12%.

`COc1ccc(F)c(-c2ccc(COc3ccc4c(c3F)[C@]3(CCC4)C[C@H]3C(=O)O)cc2[C@@H]2CCCC2(C)C)c1` gave an EC50 [1] of 0.098 µM and an Emax [2] of 90%.

`COc1ccc(F)c(-c2ccc(COc3ccc4c(c3)[C@]3(CC4)CC[C@H]3C(=O)O)cc2C2=CCCC2(C)C)c1` gave an EC50 [1] of 0.52 µM and an Emax [2] of 92%.

Compound `COc1ccc(F)c(-c2ccc(COc3ccc4c(c3)[C@@H]3[C@H](C4)[C@@H]3C(=O)O)cc2C2=CCCC2(C)C)c1` has an EC50 [1] greater than 30 µM and an Emax [2] of 10%.

For `COc1ccc(F)c(-c2ccc(COc3ccc4c(c3)[C@]3(CCC4)C[C@H]3C(=O)O)cc2C2=CCCC2(C)C)c1`, the EC50 [1] was 0.15 µM and the Emax [2] was 98%.

Work on `COc1cc(-c2ccc(COc3ccc4c(c3F)[C@]3(CCC4)C[C@H]3C(=O)O)cc2[C@@H]2CCCC2(C)C)c(F)cn1` yielded a clearance [6] of 1.83 mL/min/kg, an EC50 [1] of 0.105 µM and an inhibition [8] of less than 70%. For the same compound, the bioavailability [9] was 44%, the inhibition [10] was less than 70% and the half-life [12] was 4.1 h. It also gave a clearance [13] of 2.83 mL/min/kg, a Vd [14] of 0.8 L/kg and an inhibition [16] of less than 70%. It also gave an Emax [2] of 90%, a bioavailability [18] of 61% and an inhibition [19] of less than 70%. The inhibition [20] was less than 70%, the Vd [21] was 0.4 L/kg and the inhibition [22] was less than 70%. For the same compound, the inhibition [23] was less than 70% and the half-life [26] was 3.7 h.

In the case of `COc1ccc(F)c(-c2ccc(COc3ccc4c(c3)[C@H]3[C@@H](C4)[C@H]3C(=O)O)cc2C2=CCCC2(C)C)c1`, the EC50 [1] is reported as greater than 30 µM and the Emax [2] is reported as 17%.

With `COc1ccc(F)c(-c2ccc(COc3ccc4c(c3)[C@@H]3[C@H](C4)[C@H]3C(=O)O)cc2C2=CCCC2(C)C)c1` the EC50 [1] was greater than 30 µM and the Emax [2] was 15%.

In the case of `COc1ccc(F)c(-c2ccc(COc3ccc4c(c3)[C@@]3(CC4)C[C@H]3C(=O)O)cc2C2=CCCC2(C)C)c1`, the EC50 [1] is reported as 3.78 µM and the Emax [2] is reported as 27%.

For `COc1ccc(F)c(-c2ccc(COc3ccc4c(c3)[C@]3(CCC4)CC[C@H]3C(=O)O)cc2C2=CCCC2(C)C)c1`, the EC50 [1] was 0.35 µM and the Emax [2] was 83%.

For `COc1ccc(F)c(-c2ccc(COc3cccc([C@@H](CC(=O)O)C4CC4)c3)cc2C2=CCCC2(C)C)c1`, the inhibition [8] was greater than 70%, the inhibition [10] was greater than 70% and the Activity [27] was “Active”. The Vd [14] was 1.1 L/kg, the inhibition [16] was greater than 70% and the bioavailability [18] was 15%. The inhibition [19] was greater than 70%, the inhibition [20] was greater than 70% and the Vd [21] was 2 L/kg. It also gave an inhibition [22] greater than 70% and an inhibition [23] greater than 70%.
